Data reported in US7790171B1, “Antiviral peptides obtained from the tryptophan-rich hydrophobic cluster of the HIV-1 reverse transcriptase” (priority 2000, dated 2010).
Where no end group is shown, it is not given here.

Legend:
HIV-1 BRU [1] = conditions: cited from earlier work
[2] = target: HIV-1 RT dimerization (p66/p51) (Human immunodeficiency virus type 1 group M subtype B, UniProt P03366); conditions: cited from earlier work
[3] = test system: HIV-1 RTMF, HIV-1 RTMC, HIV-1 74V, HIV-1 N119 and HIV-1 RTMDR1; assay: β-gal activity assay in MAGIC-5 cells, anti-RT drug resistant HIV-1 strains; format: cell-based; conditions: β-gal activity day 3
Experimental: (§1) FIG. 3: Effect of MPG/p7 (SEQ ID NO:1) on replication of reference escape variant viruses. MAGIC-5 cells were incubated with 50 μl of stock HIV preparation corresponding to 1000×TCID50/ml of a, HIV-1 BRU; b, HIV-1 RTMF; c, HIV-1 RTMC; d, HIV-1 74V (FIG. 3.A); e, HIV-1 N119; f, HIV-1 RTMDR1 (FIG. 3.B), in medium alone (lane 2) or medium supplemented with AZT at 10^−5 M, 10^−6 M, 10^−7 M, 10^−8 M, 10^−9 M, and 10^−10 M (lanes 3 to 8 respectively), MPG/p7 at 10^−8 and 10^−7M (lanes 9 and 10), or MPG/p237 at 10^−6M (lane 11) additive. β-gal activity was evaluated on day 3 after virus exposure. β-gal activity in uninfected MAGIC5 cells was measured as control (lane 1). All results have been normalized (see legend of FIG. 2). The calculated values represent means of duplicate. Each figure is representative of at least three independent experiments.
β-gal activity assay. […] After 3 days in culture, cells were lysed and β-gal activity was determined by incubating 200 μl of total cellular extracts for 1 hat 37° C. in 1.5 ml buffer containing 80 mM NA2HPO4, 10 mM MgCl2, 1 mM 2 ME and 6 mM o-nitrophenyl β-D-galactopyranoside (ONPG). β-gal activity was evaluated by measuring absorbance at 410 nm. […]

HIV-1 BRU [4] = assay: RT activity assay of viral production in HIV-1 BRU-infected CEM cells; format: cell-based
Experimental: (§2) FIG. 1: Effect of different concentrations of MPG/p7 (SEQ ID NO:1) on HIV-1 and HIV-2 in CEM cell cultures. CEM cells exposed to 100 μl of viral suspensions containing 1000×50% tissue culture infective dose (TCID50)/m1 of HIV-1 BRU (left panels) or HIV-2 ROD (right panels). a, HIV-infected cells were cultured in medium alone (white diamonds) or medium supplemented with MPG/p7 at 10^−7 M (black circles), 10^−8 M, (black up triangles), 10^−9 M (black diamonds), and 10^−10 M (black squares). b, As controls, HIV-infected cells were treated with either azidothymidine (AZT: 10^−5 M) (white squares) or peptide MPG/p237 (SEQ ID NO:5) at 10^−6 M (black down triangles). Viral production was monitored by measuring RT activity twice a week post infection. Culture supernatants from virus-free CEM were tested as a control (white circles, FIG. 1b).
(§3) RI activity assay. CEM cells were incubated for 30 mm at 4° C. with 100 μl of stock HIV preparation corresponding to 1000×50% tissue culture infective dose (TCID50)/ml, then cells were washed five times and cultured at 5×10^5 cell/ml in 24-well microplates in the presence or absence of MPG/p7 (at 10^−8 and 10^−7 M) or AZT (AZT was purchased from Boehringer Mannheim, Germany) additive. Viral production was monitored twice a week by measuring reverse transcriptase activity in 1 ml of cell-free supernatant as previously described (39).

HIV-2 ROD = assay: RT activity assay of viral production in HIV-2 ROD-infected CEM cells; format: cell-based
Experimental: as §2, §3

[5] = test system: HIV-2 ROD, EHO (clades A and B); assay: β-gal activity assay in MAGIC-5 cells, HIV-2 isolates; format: cell-based; conditions: MAGIC5 cells, β-gal activity day 3
Experimental: (§4) FIG. 2: Effect of MPG/p7 (SEQ ID NO:1) on replication of different subtypes of HIV-1 and HIV-2 studied using MAGIC5 cells. MAGIC-5 cells were incubated with 50 μl of stock HIV preparation corresponding to 1000×TCID50/ml. a, HIV-1 BRU; b, HIV-1 RF; c, HIV-1 SF2 (FIG. 2.A); d, HIV-1 NDK; e, HIV-1 ELI; f, HIV-2 ROD; g, HIV-2 EHO (FIG. 2.B) in medium alone (lane 2), medium supplemented with AZT (10^−5 M) (lane 3), MPG/p7 at 10^−7 and 10^−8 M (lane 4 and 5 respectively), or MPG/p237 (SEQ ID NO:5) at 10^−6 M (lane 6) additive. After 3 days in culture, 13-gal activity was evaluated in cell lysates by measuring absorbance at 410 nm. β-gal activity in uninfected MAGIC5 cells was measured as control (lane 1). […] The calculated values represent means of duplicate. […]
(§5) β-gal activity assay. […] After 3 days in culture, cells were lysed and β-gal activity was determined by incubating 200 μl of total cellular extracts for 1 hat 37° C. in 1.5 ml buffer containing 80 mM NA2HPO4, 10 mM MgCl2, 1 mM 2 ME and 6 mM o-nitrophenyl β-D-galactopyranoside (ONPG). β-gal activity was evaluated by measuring absorbance at 410 nm.
(§6) The efficiency of MPG/p7 monitored using the previously described MAGIC5 transfectant cells that express surface CD4, CXCR4 and CCR5 receptors and contain a reporter gene under control of an HIV-1 promoter that can be induced upon infection of the cells. […]

HIV-1 RTMC = assay: β-gal activity assay in MAGIC-5 cells, HIV-1 RTMC; format: cell-based
Experimental: as §1, §5

[6] = test system: HIV-1 BRU, RF, SF2, NDK, ELI (clades B and D); assay: β-gal activity assay in MAGIC-5 cells, HIV-1 isolates; format: cell-based; conditions: MAGIC5 cells, β-gal activity day 3, X4 and R5/X4 strains
Experimental: as §4, §5, §6

HIV-1 RTMDR1 = assay: β-gal activity assay in MAGIC-5 cells, HIV-1 RTMDR1; format: cell-based; conditions: FIG. 3f
Experimental: as §1, §5

CEM cells = assay: Toxicity in CEM cells; format: cell-based, human

| Substance | inhibition of HIV-1BRU replication in CEM cell culture (previously shown) (HIV-1 BRU [1]) | inhibition of HIV-1BRU RT dimerization in vitro (previously shown) [2] | sensitivity of escape mutant viruses to treatment [3] | effect on HIV-1BRU replication at 10^−9 M (HIV-1 BRU [4]; 10^−9 M, RT activity at the end of culture (day 17), CEM cells) | delay in HIV-1 replication (HIV-1 BRU [4]; 10^−10 M of MPG/p7, CEM cells) [days] | concentration that abolishes the production of viral particles (HIV-1 BRU [4]; HIV-1 BRU-infected cultured CEM cells) | concentrations that totally inhibit HIV-1BRU replication (HIV-1 BRU [4]; RT activity in cell free supernatant, 17 days of incubation, CEM cells) | delay in HIV-2 replication (HIV-2 ROD; 10^−9 M of MPG/p7, CEM cells) [days] | concentrations that strongly delay HIV-2ROD propagation (HIV-2 ROD; RT activity in supernatant, CEM cells) | concentration at which all HIV-2 strains tested were susceptible [5] | concentration required to inhibit HIV-1 RTMC relative to other viruses (HIV-1 RTMC; FIG. 3c) | concentration required to completely inhibit HIV-1 RTMC (HIV-1 RTMC; data not shown) | concentration at which all HIV-1 strains tested were susceptible [6] | concentration required to inhibit HIV-1 RTMDR1 relative to other viruses (HIV-1 RTMDR1) | concentrations without any toxicity in CEM cells (CEM cells) |
| --- | --- | --- | --- | --- | --- | --- | --- | --- | --- | --- | --- | --- | --- | --- | --- |
| MPG/p7: non-covalent complex of peptide p7 (SEQ ID NO:1) with carrier peptide MPG (SEQ ID NO:2) (chain 1 KETWETWWTE; chain 2 GALFLGFLGAAGSTMGAWSQPKSKRKV; also: non-covalent complex of p7 with carrier MPG) | inhibit | inhibit | sensitive | very slow virus propagation | 3 | 10^−8 M | above 10^−8 M | 3 | above 10^−7 M | 10^−8 M | higher than that required to block the other viruses | 10^−6 M | 10^−8 M | higher than that required to block the other viruses | – |
| KETWETWWTE [p7, KETWETWWTE] | – | – | – | – | – | – | – | – | – | – | – | – | – | – | below 10^−5 M |
